Laboratory results as given in patent US20210101874A1, “MICROBIOCIDAL OXADIAZOLE DERIVATIVES” (SYNGENTA PARTICIPATIONS AG, priority 2017, published 2021).

Tests used:
[1] = test system: Puccinia recondita f. sp. Tritici; test: Puccinia recondita f. sp. tritici / wheat / leaf disc preventative (brown rust); type: in vivo; conditions: foliar, 200 ppm in the applied formulation, wheat leaf segments cv. Kanzler, inoculated 1 day after application, compared to untreated, assessed 7 to 9 days after application, read-out: disease control
How it was run: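 Single evaluation 7–9 d after spraying: % disease control compared with untreated leaf segments. Protocol: cv. Kanzler segments, preventative spray at 200 ppm, spore inoculation at day 1, 19° C., 75% rh, 12 h light/12 h dark.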

[2] = test system: Glomerella lagenarium (Colletotrichum lagenarium); test: Glomerella lagenarium (Colletotrichum lagenarium) liquid culture / cucumber / preventative (anthracnose); type: cell-based; conditions: Colletotrichum orbiculare; 20 ppm in the applied formulation; conidia in PDB nutrient broth, 24° C.; 3 to 4 days after application; compared to untreated; read-out: disease control (inhibition of growth measured photometrically)
How it was run: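 Test compound, diluted from DMSO, was mixed in microtiter wells with fungal conidia taken from cryogenic storage and suspended in PDB nutrient broth. After 3 to 4 days at 24 °C, photometric growth measurement gave antifungal activity as a percentage of the untreated control.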

[3] = test system: Puccinia recondita f. sp. Tritici; test: Puccinia recondita f. sp. tritici / wheat / leaf disc curative (brown rust); type: in vivo; conditions: foliar, 200 ppm in the applied formulation, wheat leaf segments cv. Kanzler, applied 1 day after inoculation, compared to untreated, assessed 6 to 8 days after application, read-out: disease control
How it was run: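 Compounds, prepared from DMSO solutions of at most 10 mg/ml and diluted just before spraying, are applied curatively to inoculated Kanzler wheat leaf segments. Segments are incubated at 19° C and 75% RH in a climate cabinet; disease control relative to untreated is evaluated 6 to 8 days later.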

Row | melting point | Compound | pest or weed control at 200 ppm [1] | inhibition at 20 ppm [2] | pest or weed control at 200 ppm [3]
1 | 82 to 84 °C | CN(C)S(=O)(=O)N(Cc1ccc(-c2noc(C(F)(F)F)n2)cc1)C1CC1 [Compound 1.6, N-(dimethylsulfamoyl)-N-[[4-[5-(trifluoromethyl)-1,2,4-oxadiazol-3-yl]phenyl]methyl] cyclopropanamine] | ≥ 80% | ≥ 80% | –
2 | 99 to 101 °C | O=S(=O)(N1CCOCC1)N(Cc1ccc(-c2noc(C(F)(F)F)n2)cc1)C1CC1 [Compound 1.7, N-cyclopropyl-N-[[4-[5-(trifluoromethyl)-1,2,4-oxadiazol-3-yl]phenyl]methyl] morpholine-4-sulfonamide] | ≥ 80% | ≥ 80% | –
3 | 73 to 75 °C | CON(Cc1ccc(-c2noc(C(F)(F)F)n2)cc1)S(=O)(=O)C1CC1 [Compound 1.9, N-methoxy-N-[[4-[5-(trifluoromethyl)-1,2,4-oxadiazol-3-yl]phenyl]methyl] cyclopropanesulfonamide] | – | ≥ 80% | –
4 | 109 to 111 °C | CN(Cc1ccc(-c2noc(C(F)(F)F)n2)cc1)S(=O)(=O)Cc1ccccc1 [Compound 1.14, N-methyl-1-phenyl-N-[[4-[5-(trifluoromethyl)-1,2,4-oxadiazol-3-yl]phenyl]methyl] methanesulfonamide] | ≥ 80% | ≥ 80% | –
5 | 70 to 73 °C | CCCNS(=O)(=O)N(Cc1ccc(-c2noc(C(F)(F)F)n2)cc1)C1CC1 [Compound 1.21, 3-[4-[[cyclopropyl (propylsulfamoyl)amino]methyl]phenyl]-5-(trifluoromethyl)-1,2,4-oxadiazole] | – | ≥ 80% | –
6 | – | CNS(=O)(=O)NCc1ccc(-c2noc(C(F)(F)F)n2)c(F)c1 [Compound 2.28, 1-[3-fluoro-4-[5-(trifluoromethyl)-1,2,4-oxadiazol-3-yl]phenyl]-N-(methylsulfamoyl) methanamine] | ≥ 80% | ≥ 80% | ≥ 80%
7 | – | CNS(=O)(=O)NCc1ccc(-c2noc(C(F)(F)F)n2)cc1F [Compound 2.29, 1-[2-fluoro-4-[5-(trifluoromethyl)-1,2,4-oxadiazol-3-yl]phenyl]-N-(methylsulfamoyl) methanamine] | ≥ 80% | ≥ 80% | ≥ 80%
8 | – | CN(C)S(=O)(=O)NCc1ccc(-c2noc(C(F)(F)F)n2)c(F)c1 [Compound 2.30, 3-[4-[(dimethyl-sulfamoylamino)methyl]-2-fluoro-phenyl]-5-(trifluoromethyl)-1,2,4-oxadiazole] | ≥ 80% | ≥ 80% | ≥ 80%
9 | – | CN(C)S(=O)(=O)NCc1ccc(-c2noc(C(F)(F)F)n2)cc1F [Compound 2.31, 3-[4-[(dimethyl-sulfamoylamino)methyl]-3-fluoro-phenyl]-5-(trifluoromethyl)-1,2,4-oxadiazole] | ≥ 80% | ≥ 80% | ≥ 80%
10 | – | C=CCS(=O)(=O)NCc1ccc(-c2noc(C(F)(F)F)n2)cc1F [Compound 2.32, N-[[2-fluoro-4-[5-(trifluoromethyl)-1,2,4-oxadiazol-3-yl]phenyl]methyl] prop-2-ene-1-sulfonamide] | ≥ 80% | ≥ 80% | ≥ 80%
11 | – | COCCS(=O)(=O)NCc1ccc(-c2noc(C(F)(F)F)n2)cc1F [Compound 2.34, N-[[2-fluoro-4-[5-(trifluoromethyl)-1,2,4-oxadiazol-3-yl]phenyl]methyl]-2-methoxy-ethanesulfon-amide] | ≥ 80% | ≥ 80% | ≥ 80%
12 | – | C/C=C/S(=O)(=O)NCc1ccc(-c2noc(C(F)(F)F)n2)cc1F [Compound 2.36, (E)-N-[[2-fluoro-4-[5-(trifluoromethyl)-1,2,4-oxadiazol-3-yl]phenyl]methyl] prop-1-ene-1-sulfonamide] | ≥ 80% | ≥ 80% | ≥ 80%
13 | 112 to 115 °C | O=S(=O)(NCc1ccc(-c2noc(C(F)(F)F)n2)cc1)c1ccc(F)cc1F [Compound 3.5, 2,4-difluoro-N-[[4-[5-(trifluoromethyl)-1,2,4-oxadiazol-3-yl]phenyl]methyl] benzenesulfonamide] | ≥ 80% | – | –
14 | 140 to 144 °C | O=S(=O)(Cc1ccc(Cl)cc1F)NCc1ccc(-c2noc(C(F)(F)F)n2)cc1 [Compound 3.6, 1-(4-chloro-2-fluoro-phenyl)-N-[[4-[5-(trifluoromethyl)-1,2,4-oxadiazol-3-yl]phenyl]methyl] methanesulfonamide] | ≥ 80% | – | –
15 | – | Cn1ccc(S(=O)(=O)NCc2ccc(-c3noc(C(F)(F)F)n3)cc2)n1 [Compound 3.10, 1-methyl-N-[[4-[5-(trifluoromethyl)-1,2,4-oxadiazol-3-yl]phenyl]methyl] pyrazole-3-sulfonamide] | ≥ 80% | ≥ 80% | ≥ 80%
16 | – | Cn1ccc(S(=O)(=O)NCc2ccc(-c3noc(C(F)(F)F)n3)c(F)c2)n1 [Compound 3.14, N-[[3-fluoro-4-[5-(trifluoromethyl)-1,2,4-oxadiazol-3-yl]phenyl]methyl]-1-methyl-pyrazole-3-sulfonamide] | ≥ 80% | ≥ 80% | ≥ 80%
17 | – | O=S(=O)(NCc1ccc(-c2noc(C(F)(F)F)n2)c(F)c1)N1CCCC1 [Compound 3.17, N-[[3-fluoro-4-[5-(trifluoromethyl)-1,2,4-oxadiazol-3-yl]phenyl]methyl] pyrrolidine-1-sulfonamide] | ≥ 80% | ≥ 80% | ≥ 80%
18 | – | O=S(=O)(NCc1ccc(-c2noc(C(F)(F)F)n2)c(F)c1)C1CC1 [Compound 3.19, N-[[3-fluoro-4-[5-(trifluoromethyl)-1,2,4-oxadiazol-3-yl]phenyl]methyl] cyclopropanesulfon-amide] | ≥ 80% | ≥ 80% | ≥ 80%
19 | – | O=S(=O)(CC1CCOC1)NCc1ccc(-c2noc(C(F)(F)F)n2)c(F)c1 (stereo not shown) [Compound 3.20, N-[[3-fluoro-4-[5-(trifluoromethyl)-1,2,4-oxadiazol-3-yl]phenyl]methyl]-1-tetrahydrofuran-3-yl-methanesulfonamide] | ≥ 80% | ≥ 80% | ≥ 80%
20 | – | O=S(=O)(CC1CC1)NCc1ccc(-c2noc(C(F)(F)F)n2)c(F)c1 [Compound 3.21, 1-cyclopropyl-N-[[3-fluoro-4-[5-(trifluoromethyl)-1,2,4-oxadiazol-3-yl]phenyl]methyl] methanesulfonamide] | ≥ 80% | ≥ 80% | ≥ 80%
21 | – | Cn1ccc(S(=O)(=O)NCc2ccc(-c3noc(C(F)(F)F)n3)cc2F)n1 [Compound 3.24, N-[[2-fluoro-4-[5-(trifluoromethyl)-1,2,4-oxadiazol-3-yl]phenyl]methyl]-1-methyl-pyrazole-3-sulfonamide] | ≥ 80% | ≥ 80% | ≥ 80%
22 | – | O=S(=O)(NCc1ccc(-c2noc(C(F)(F)F)n2)cc1F)N1CCCC1 [Compound 3.27, N-[[2-fluoro-4-[5-(trifluoromethyl)-1,2,4-oxadiazol-3-yl]phenyl]methyl] pyrrolidine-1-sulfonamide] | ≥ 80% | ≥ 80% | ≥ 80%
23 | – | O=S(=O)(NCc1ccc(-c2noc(C(F)(F)F)n2)cc1F)C1CC1 [Compound 3.29, N-[[2-fluoro-4-[5-(trifluoromethyl)-1,2,4-oxadiazol-3-yl]phenyl]methyl] cyclopropanesulfon-amide] | ≥ 80% | ≥ 80% | ≥ 80%
24 | – | O=S(=O)(CC1CCOC1)NCc1ccc(-c2noc(C(F)(F)F)n2)cc1F (stereo not shown) [Compound 3.30, N-[[2-fluoro-4-[5-(trifluoromethyl)-1,2,4-oxadiazol-3-yl]phenyl]methyl]-1-tetrahydrofuran-3-yl-methanesulfonamide] | ≥ 80% | ≥ 80% | ≥ 80%
25 | – | O=S(=O)(CC1CC1)NCc1ccc(-c2noc(C(F)(F)F)n2)cc1F [Compound 3.31, 1-cyclopropyl-N-[[2-fluoro-4-[5-(trifluoromethyl)-1,2,4-oxadiazol-3-yl]phenyl]methyl] methanesulfonamide] | ≥ 80% | ≥ 80% | ≥ 80%
26 | 125 to 135 °C | O=S(=O)(Cc1ccccc1)Nc1ccc(-c2noc(C(F)(F)F)n2)cc1 [Compound 3.34, 1-phenyl-N-[4-[5-(trifluoromethyl)-1,2,4-oxadiazol-3-yl]phenyl]methane-sulfonamide] | – | ≥ 80% | –
